Read-outs that look alike come from different tables or passages of the source.
How the values were obtained:
[1] = system: locally advanced breast cancer; details: paclitaxel 175 mg/m^2 and 5FU with 50.4 Gy, then 3 cycles of FEC, then surgery; 23 patients; cited from earlier work
[2] = system: stage IIB to III locally advanced breast cancer; details: cited from earlier work
MCF-7 cells = MCF-7 cells treated with increasing doses of Epirubicin with and without 10 Gy radiation (RIN, RDI, RNA concentration); assay type: cell-based
Experimental: FIG. 9: Graphs of MCF-7 cells were treated with increasing doses of Epirubicin with and without 10 Gy radiation. A) RIN value vs. Epirubicin; B) RDI value vs. Epirubicin; C) RNA concentration vs. Epirubicin Dose.

A2780 cells [3] = test: A2780 cells treated with increasing doses of Epirubicin with and without 10 Gy radiation (RIN, RDI, RNA concentration); assay type: cell-based; details: with 10 Gy radiation, 96 h post-radiation
Experimental: A2780 cells were treated with increasing doses of Epirubicin with and without 10 Gy radiation.A2780 cells were plated into 6 cm plates in 4 ml of RPMI culture medium. The plates were placed in the incubator and the cells were allowed to adhere overnight. The next day, the medium was removed from all plates and new media containing the appropriate epirubicin concentration (1 pM, 5 pM, 20 nM, 50 nM, and 100 nM) was added to the plates. Cells were pre-treated for 24 h with epirubicin prior to receiving radiation treatment. The following day (24 h post epirubicin drug-treatment), the cells were given 10 Gy of x-ray radiation treatment (300 kV, 9 mA) in approximately 4.3 min of x-ray exposure using a RS320 Irradiation System (Gulmay Medical) The cells were returned to the cell culture incubator, and RNA was extracted from the cells 96 h post-radiation treatment (which corresponds to 120 h post-epirubicin treatment).

[4] = system: breast cancer, T1c-T3 N0-N1 disease; details: preoperative AC alone versus AC with addition of docetaxel; cited from earlier work
A2780 cells [5] = test: A2780 cells treated with 5 nM Docetaxel, 10 Gy radiation or both for 72 or 96 hours (RIN, RDI); assay type: cell-based; details: n=3
Experimental: In another experiment, A2780 cells were treated with 5 nM Docetaxel, 10 Gy Radiation and 10 Gy Radiation+5 nM Docetaxel for 72 hours or 96 hours.

metastatic breast cancer = details: cited from earlier work
[6] = system: anthracycline-resistant metastatic breast cancer; details: cited from earlier work
[7] = system: A2780 ovarian tumour cells; test: RNA concentration and RIN in A2780 cells after radiation with or without docetaxel; assay type: cell-based
Experimental: Experiments were conducted to assess whether radiation with or without docetaxel treatment could induce changes in cellular RNA concentration and/or RIN values in A2780 ovarian tumour cells. […] In contrast under the tested conditions, radiation doses up to 5 Gray had no effect on cellular RNA integrity, as no changes in RIN values were observed compared to samples prior to radiation treatment (FIG. 5B). If cells were pre-incubated for 24 hours with 0.1 μM docetaxel prior to 10 Gray radiation treatment, the cellular RIN value decreased to 75% of pre-treatment values. There were additional decreases in RIN when radiation and chemotherapy were used together concurrently. […] Moreover, the combination of both radiation and docetaxel treatment induces even stronger reductions in both cellular RNA content and RNA integrity. These observations are consistent with those described above for tumours of patients with locally advanced breast cancer, in particular for the combined therapy post-treatment, where RNA concentration fell dramatically in response to FEC-D chemotherapy with concurrent radiation therapy and where differences between between responding patients (pCR) and non-reponding patients (no pCR) appeared to be observed post-treatment.

[8] = system: breast cancer, T3, T4 or TxN2 disease; details: cited from earlier work
[9] = system: MCF-7 breast tumour cells; test: RNA concentration and RIN in MCF-7 cells after radiation with or without docetaxel; assay type: cell-based
Experimental: The effects of the above treatments on MCF-7 (ER+, HER2−) cells (FIGS. 7A and 7B) were examined, findings were similar to those of SKBR3 cells, with 4% and 73% reductions in RNA levels observed for the 10 Gray and 10 Gray/0.1 μM docetaxel treatments, respectively. […] Moreover, only a 4% reduction in cellular RIN values were observed when cells were pre-treated with 0.1 μM docetaxel prior to the 10 Gray radiation.

[10] = system: SKBR3 breast tumour cells; test: RNA concentration and RIN in SKBR3 cells after radiation with or without docetaxel; assay type: cell-based
Experimental: It was then examined whether similar observations could be observed in vitro for specific breast tumour cell lines. […] If cells were pre-treated with 0.1 μM docetaxel prior to 10 Gray radiation, a 5-fold reduction in cellular RNA concentration was observed (19% of untreated cells). RNA concentration decreases 2 fold (or more) in BT-20, A2780 and MB-468 cells with radiation only. […] Concurrent docetaxel treatment with radiation therapy dramatically reduces cellular RNA content, consistent with the observed findings for patients with locally advanced breast cancer treated with FEC-D chemotherapy followed by radiation treatment. Similar findings were observed when the effects of the above treatments on RIN values were examined in SKBR3 (HER2+, ER−) cells (FIG. 6B).

[11] = paclitaxel 30 mg/m^2 twice weekly with radiation to 45 Gy, then surgery
[12] = 35 mg/m^2 weekly for 3 of every 4 weeks
[13] = after 4 cycles of CVAP, 4 cycles of docetaxel versus 4 more cycles of CVAP, intention-to-treat
[14] = pre-treated with 0.1 μM docetaxel prior to 10 Gray radiation

For CC(=O)O[C@H]1C(=O)[C@@]2(C)[C@H]([C@H](OC(=O)c3ccccc3)[C@]3(O)C[C@H](OC(=O)[C@H](O)[C@@H](NC(=O)c4ccccc4)c4ccccc4)C(C)=C1C3(C)C)[C@]1(OC(C)=O)CO[C@@H]1C[C@@H]2O [paclitaxel], the “clinical CR” value [1] is listed as 82.6%, the “overall 2-year survival” value [1] is listed as 80.7% and the pCR [1] is listed as 52.2%. The “patients achieving a pCR” value [2, 11] was “Sixteen”, the “patients achieving a pPR” value [2, 11] was 18% and the “grade 4 leucopenia” value ([2]; postoperative phase) was 10%. The “grade 4 toxicities” value ([2]; preoperative chemoradiation phase, paclitaxel 30 mg/m^2 twice weekly with radiation to 45 Gy) was “No grade 4 toxicities were observed”.
With COc1cccc2c1C(=O)c1c(O)c3c(c(O)c1C2=O)C[C@@](O)(C(=O)CO)C[C@@H]3O[C@H]1C[C@H](N)[C@@H](O)[C@H](C)O1 [Epirubicin] the “RIN value vs Epirubicin dose” value (MCF-7 cells; combined with 10 Gy radiation) was “loss in RIN value”, the “RNA concentration vs Epirubicin dose” value (MCF-7 cells; increasing doses of Epirubicin) was “loss in RNA concentration” and the “RDI value vs Epirubicin dose” value (MCF-7 cells; with radiation, up to 100 uM Epirubicin) was “increase in RDI value”. For the same molecule, the “RIN value vs Epirubicin dose” value (A2780 cells [3]; low doses of Epirubicin) was “loss in RIN value”, the “RDI value vs Epirubicin dose” value (A2780 cells [3]; low drug doses) was “RDI values increase” and the “RNA concentration vs Epirubicin dose” value (A2780 cells [3]; low drug doses) was “increased loss in RNA concentration”.
For CC(=O)O[C@@]12CO[C@@H]1C[C@H](O)[C@@]1(C)C(=O)[C@H](O)C3=C(C)[C@@H](OC(=O)[C@H](O)[C@@H](NC(=O)OC(C)(C)C)c4ccccc4)C[C@@](O)([C@@H](OC(=O)c4ccccc4)[C@H]21)C3(C)C [docetaxel], the “clinical complete response (cCR)” value [4] is given as 63.6%, the pCR [4] is given as 26.1% and the “proportion of patients with negative nodes” value [4] is given as 58.2%. For the same molecule, the “mean RDI value” (A2780 cells [5]; 10 Gy radiation + 5 nM Docetaxel compared with Docetaxel alone, 96 hr) was “increase in RDI value”, the “mean RIN value” (A2780 cells [5]; 10 Gy radiation + 5 nM Docetaxel, 72 hr) was “increased loss in RIN value” and the “overall survival (OS)” value (metastatic breast cancer; [12]) was 18.6 months. For the same molecule, the progression-free survival (metastatic breast cancer; [12]) was 5.5 months, the “overall survival (OS)” value (metastatic breast cancer; 100 mg/m^2 every 3 weeks) was 18.3 months and the progression-free survival (metastatic breast cancer; 100 mg/m^2 every 3 weeks) was 5.7 months. For the same molecule, the overall serious toxicity (metastatic breast cancer; Q 3-week arm) was 88.1%, the overall serious toxicity (metastatic breast cancer; weekly arm) was 55.9% and the response rates [6] was “up to 50%”. For the same molecule, the “effect of concurrent docetaxel on radiation-induced reduction of RNA content and integrity” value ([7]; 0.1 μM docetaxel, 10 Gray) was “strongly augmented”, the “cellular RIN value, % of pre-treatment values” ([7]; pre-incubated 24 hours with 0.1 μM docetaxel prior to 10 Gray radiation) was 75% and the “additional reduction of cellular RNA concentration” value ([7]; pre-incubation with 0.1 μM docetaxel, 10 Gray radiation, versus radiation alone) was 6.5 fold. For the same molecule, the DFS ([8]; 38 months median follow-up) was 90%, the OS ([8]; 38 months median follow-up) was 97% and the cCR [8, 13] was 94%. For the same molecule, the pCR [8, 13] was 31%, the “effect of concurrent docetaxel on effect of radiation on RNA content and integrity” value ([9]; 0.1 μM docetaxel, 10 Gray) was “only slightly augmented” and the “reduction in RNA levels” value ([9]; 10 Gray/0.1 μM docetaxel) was 73%. For the same molecule, the “reduction in cellular RIN values” [9, 14] was 4%, the “effect of concurrent docetaxel on effects of radiation on RNA content and RNA integrity” value ([10]; 0.1 μM docetaxel, 10 Gray) was “strongly augmented” and the “cellular RNA concentration, % of untreated cells” value [10, 14] was 19%. The “reduction in cellular RNA concentration” value [10, 14] was 5 fold and the “reduction in cellular RIN values” ([10]; radiation, cells pre-treated with docetaxel) was 9%.

Reference: US10385400B2, “Methods and kits for monitoring response to radiation therapies in cancer” (RNA Diagnostics Inc., priority 2012, dated 2019)
